Legend:
[1] = system: Sprague Dawley rats (CCI neuropathic pain); test: Chronic constriction injury (CCI) model of neuropathic pain, tactile allodynia by von Frey filaments; assay type: in vivo, rat; conditions: male Sprague Dawley rats, 10 mg/kg orally in 10% dimethyl sulfoxide/polyethylene glycol, mechanical allodynia 60 minutes after administration, calculated from log g paw withdrawal threshold
Experimental: Test compounds can be evaluated for analgesic effect in an in vivo model of neuropathic pain. Specifically, animals were prepared for testing, by use of a surgical procedure that induces neuropathic pain in one paw. IACUC guidelines for rodent survival surgery were followed. All surgical procedures were conducted on a clean, uncluttered surgical station. The area was wiped with a 70% ethanol solution before and after use. All instruments were sterilized by either autoclave or chemical sterilant (such as 2% glutaraldehyde>10 hours). Surgeons wore sterile gloves (for the initial procedure), clean lab coat or scrubs, hairnet or cap, and a half-mask respirator (when not working under a hood). Surgeons thoroughly washed their hands prior to donning sterile gloves. Gloves were disinfected in-between animals by cleansing with povidone iodine, chlorhexidine or 70% alcohol for at least 30 seconds. If multiple surgeries were performed, the instruments were cleaned and sterilized between procedures with hot glass beads (>10 seconds). To prevent thermal or chemical burns, the instruments were cooled by rinsing in sterile saline before use.
Male, Sprague Dawley® rats, 175-200 g were used for surgeries. To minimize post-operative dehydration/maintain blood volume during the surgery, warmed sterile saline or Lactate Ringers solution at 10-15 mL/kg was administered subcutaneously immediately before or after surgery. This facilitates better renal function and presumably anesthesia product excretion post surgery. For all surgical procedures, anesthesia was induced with 4-5% isoflurane. Anesthesia was maintained during surgery with 1-3% isoflurane. Following induction, the surgical site was carefully shaved and the exposed area was aseptically prepared with povidone-iodine scrub solution and 70% ethanol 2-3 times.
Chronic constriction injury (CCI), a model of neuropathic pain, was produced by following the method of Bennett and Xie (Bennett, G., et al. Pain, 1988, 33, 87-107). After site sterilization and anesthetic procedures outline above were completed, a 1.5 cm incision is made at the mid-thigh level to expose the biceps femoris and gluteous superficialis (right side), which were then separated by blunt dissection. The common sciatic nerve was exposed, isolated, and loosely ligated by four 5-0 chromic gut ligatures with <1 mm spacing between each. The surgical site was closed in layers—muscle is closed with 6.0 absorbable sutures, and the skin closed with wound clips. Animals were allowed to recover on a warming plate and were returned to their home cages when fully ambulatory. Animals were not be used for testing until at least 10 days following surgery.
To measure mechanical sensitivity, tactile allodynia was measured using calibrated von Frey filaments (Stoelting, Wood Dale, Ill.) as described by Chaplan et al. (Chaplan S., et al. J of Neuroscience Methods 1994, 53, 55-63). Filament strengths used were: 0.4, 0.6, 1.0, 2, 4, 6, 8, and 15 g. Rats were placed into inverted individual plastic containers (20×12.5×20 cm) on top of a suspended wire mesh grid, and acclimated to the test chambers for at least 20 minutes. Filaments were applied perpendicular to the mid-plantar paw surface with enough force to cause slight buckling and held in place for 6-8 seconds. Positive responses included an abrupt withdrawal of the paw from the stimulus or flinching behavior immediately following removal of the stimulus. The maximum force applied was 15 g. The 50% paw withdrawal threshold (PWT) was calculated in grams (g) using the up-down method of Dixon (Dixon W. Ann Rev Pharmacol Toxicol 1980, 20, 441-462). […] All compounds were orally administered at 10 mg/kg in 10% dimethyl sulfoxide/polyethylene glycol at a volume of 2.0 mL/kg, and mechanical allodynia was determined 60 minutes following compound administration
The data are reported as log g values and the percentage of maximum possible effect (% MPE) is calculated using log g values with the Formula: […]

human Cav2.2 = molecular target: T1, human Cav2.2 (Homo sapiens, UniProt Q00975); test: Calcium flux (FLIPR, Calcium 4 dye) in IMR32 cells endogenously expressing human Cav2.2; assay type: cell-based; conditions: 60 minute pre-incubation, 2 μM nifedipine to block L-type channels, depolarized with 80 mM KCl, 5 mM CaCl2, average of n≥2 runs unless marked *
T1 construct: cells endogenously expressing human Cav2.2; endogenous in cells; host or cells: IMR32 cells
Procedure, shortened: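 IMR32 cells were dye-loaded 1.5 h at room temperature in HBSS/HEPES pH 7.4, then preincubated 60 min with compounds (10 μM to 0.1 nM) plus 1.3 mM CaCl2 and 2 μM nifedipine. Influx triggered by 5 mM CaCl2 with 80 mM KCl depolarization, FLIPR read; IC50 from sigmoidal fit of percent inhibition, usually n≥2.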

T1 sequence (Q00975 whole entry): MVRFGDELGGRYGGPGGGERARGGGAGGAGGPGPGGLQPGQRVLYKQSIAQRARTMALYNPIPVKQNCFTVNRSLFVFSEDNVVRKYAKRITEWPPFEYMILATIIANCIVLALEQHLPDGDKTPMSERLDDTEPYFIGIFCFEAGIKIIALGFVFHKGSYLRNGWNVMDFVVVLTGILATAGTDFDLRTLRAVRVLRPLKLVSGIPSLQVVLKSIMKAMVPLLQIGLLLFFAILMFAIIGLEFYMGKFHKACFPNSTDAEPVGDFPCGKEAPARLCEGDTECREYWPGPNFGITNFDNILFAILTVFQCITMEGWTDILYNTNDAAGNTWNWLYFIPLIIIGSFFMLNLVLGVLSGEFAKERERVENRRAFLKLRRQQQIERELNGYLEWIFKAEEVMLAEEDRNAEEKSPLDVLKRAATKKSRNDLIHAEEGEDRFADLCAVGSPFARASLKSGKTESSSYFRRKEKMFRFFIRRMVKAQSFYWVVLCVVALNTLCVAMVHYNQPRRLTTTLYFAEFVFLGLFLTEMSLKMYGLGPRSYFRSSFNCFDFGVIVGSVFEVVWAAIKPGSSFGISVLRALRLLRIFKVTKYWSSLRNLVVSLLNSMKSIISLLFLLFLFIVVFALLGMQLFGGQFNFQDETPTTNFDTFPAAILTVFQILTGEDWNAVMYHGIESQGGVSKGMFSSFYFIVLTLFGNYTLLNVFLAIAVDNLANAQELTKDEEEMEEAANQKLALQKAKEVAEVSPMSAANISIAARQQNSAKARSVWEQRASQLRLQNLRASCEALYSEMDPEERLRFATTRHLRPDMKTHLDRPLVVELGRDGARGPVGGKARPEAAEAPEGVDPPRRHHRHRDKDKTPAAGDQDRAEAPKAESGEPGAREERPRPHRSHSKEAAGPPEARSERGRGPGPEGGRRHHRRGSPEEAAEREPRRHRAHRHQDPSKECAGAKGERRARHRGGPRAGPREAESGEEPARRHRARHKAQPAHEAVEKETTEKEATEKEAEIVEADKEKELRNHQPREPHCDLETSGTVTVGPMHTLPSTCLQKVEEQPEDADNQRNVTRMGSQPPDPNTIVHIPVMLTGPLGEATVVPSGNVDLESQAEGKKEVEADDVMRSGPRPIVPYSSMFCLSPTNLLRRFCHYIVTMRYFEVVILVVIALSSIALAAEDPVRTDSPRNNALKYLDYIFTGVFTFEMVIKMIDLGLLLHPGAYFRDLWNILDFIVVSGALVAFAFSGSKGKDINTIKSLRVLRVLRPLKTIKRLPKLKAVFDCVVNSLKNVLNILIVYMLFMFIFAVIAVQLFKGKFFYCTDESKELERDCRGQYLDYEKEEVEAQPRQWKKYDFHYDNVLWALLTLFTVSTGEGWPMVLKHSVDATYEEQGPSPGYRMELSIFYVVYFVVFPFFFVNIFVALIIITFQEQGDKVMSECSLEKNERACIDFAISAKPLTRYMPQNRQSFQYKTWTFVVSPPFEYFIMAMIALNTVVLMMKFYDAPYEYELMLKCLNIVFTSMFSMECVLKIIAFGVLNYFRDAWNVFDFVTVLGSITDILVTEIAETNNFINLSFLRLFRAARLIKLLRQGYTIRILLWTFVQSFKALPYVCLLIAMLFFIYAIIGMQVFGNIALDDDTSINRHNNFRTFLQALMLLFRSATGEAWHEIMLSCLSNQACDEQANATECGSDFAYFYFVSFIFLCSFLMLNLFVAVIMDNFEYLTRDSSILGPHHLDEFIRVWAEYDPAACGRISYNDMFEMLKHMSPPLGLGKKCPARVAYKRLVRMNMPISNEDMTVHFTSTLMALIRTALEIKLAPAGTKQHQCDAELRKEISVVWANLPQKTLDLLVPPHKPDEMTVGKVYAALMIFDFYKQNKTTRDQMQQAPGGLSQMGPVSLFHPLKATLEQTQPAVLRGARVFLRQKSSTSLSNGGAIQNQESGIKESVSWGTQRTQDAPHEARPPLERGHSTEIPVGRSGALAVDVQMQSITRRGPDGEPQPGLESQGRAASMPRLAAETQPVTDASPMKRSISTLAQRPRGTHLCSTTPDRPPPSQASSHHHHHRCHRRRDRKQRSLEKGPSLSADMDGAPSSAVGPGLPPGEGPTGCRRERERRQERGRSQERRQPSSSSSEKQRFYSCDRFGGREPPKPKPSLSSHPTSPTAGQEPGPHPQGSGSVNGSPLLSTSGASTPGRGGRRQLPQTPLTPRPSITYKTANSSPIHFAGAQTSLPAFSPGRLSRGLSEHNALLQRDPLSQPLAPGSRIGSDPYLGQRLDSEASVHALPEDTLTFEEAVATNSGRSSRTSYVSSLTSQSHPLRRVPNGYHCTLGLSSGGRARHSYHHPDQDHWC
T1 sequence (P54284 whole entry partner): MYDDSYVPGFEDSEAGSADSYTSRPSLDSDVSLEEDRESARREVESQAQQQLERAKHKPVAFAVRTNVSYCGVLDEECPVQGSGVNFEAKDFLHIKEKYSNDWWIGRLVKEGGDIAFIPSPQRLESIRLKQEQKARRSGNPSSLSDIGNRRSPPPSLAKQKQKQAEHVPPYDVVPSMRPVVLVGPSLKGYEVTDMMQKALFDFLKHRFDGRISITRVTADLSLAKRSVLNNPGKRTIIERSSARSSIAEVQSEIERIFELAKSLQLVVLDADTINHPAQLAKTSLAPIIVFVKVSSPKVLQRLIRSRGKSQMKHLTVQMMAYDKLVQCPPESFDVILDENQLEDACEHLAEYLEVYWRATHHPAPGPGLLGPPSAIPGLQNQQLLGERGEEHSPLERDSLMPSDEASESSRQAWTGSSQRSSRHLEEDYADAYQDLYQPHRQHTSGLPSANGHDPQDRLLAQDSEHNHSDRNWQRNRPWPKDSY
T1 sequence (P54289 25-956 partner limits assumed): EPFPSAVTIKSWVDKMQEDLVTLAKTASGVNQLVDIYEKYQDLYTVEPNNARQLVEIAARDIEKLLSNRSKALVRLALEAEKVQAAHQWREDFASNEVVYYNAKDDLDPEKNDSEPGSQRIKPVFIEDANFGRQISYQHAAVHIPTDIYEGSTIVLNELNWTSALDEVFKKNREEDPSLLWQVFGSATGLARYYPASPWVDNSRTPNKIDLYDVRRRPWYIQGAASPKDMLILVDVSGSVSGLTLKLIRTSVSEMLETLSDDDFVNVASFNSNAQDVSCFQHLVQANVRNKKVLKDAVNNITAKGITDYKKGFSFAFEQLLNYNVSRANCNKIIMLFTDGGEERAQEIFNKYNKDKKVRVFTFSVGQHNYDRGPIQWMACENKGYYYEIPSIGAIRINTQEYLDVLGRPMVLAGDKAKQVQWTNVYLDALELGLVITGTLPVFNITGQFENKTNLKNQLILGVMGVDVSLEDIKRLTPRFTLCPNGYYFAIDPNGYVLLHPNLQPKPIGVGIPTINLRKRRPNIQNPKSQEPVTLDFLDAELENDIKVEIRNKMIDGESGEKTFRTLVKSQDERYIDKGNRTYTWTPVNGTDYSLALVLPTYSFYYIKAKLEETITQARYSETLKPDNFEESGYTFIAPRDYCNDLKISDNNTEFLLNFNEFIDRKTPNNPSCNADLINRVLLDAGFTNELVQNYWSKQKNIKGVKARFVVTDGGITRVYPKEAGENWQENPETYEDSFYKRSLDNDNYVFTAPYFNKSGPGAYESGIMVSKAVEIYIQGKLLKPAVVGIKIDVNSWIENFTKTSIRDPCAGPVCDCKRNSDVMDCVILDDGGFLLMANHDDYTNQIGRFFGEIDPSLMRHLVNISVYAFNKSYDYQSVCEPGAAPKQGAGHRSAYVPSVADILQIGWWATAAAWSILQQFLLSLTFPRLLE
T1 sequence (P54289 957-1103 partner limits assumed): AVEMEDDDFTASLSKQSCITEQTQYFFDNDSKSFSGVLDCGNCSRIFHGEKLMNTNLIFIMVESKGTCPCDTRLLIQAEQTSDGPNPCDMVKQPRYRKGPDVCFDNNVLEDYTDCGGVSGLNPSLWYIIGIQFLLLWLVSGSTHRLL

Row | SMILES | % MPE [1] [%] | IC50 (human Cav2.2) [µM]
1 | O=C(c1cccc(C(F)(F)F)c1)N1CCC(=O)N2C[C@H](Oc3cnc(C4CC4)cn3)C[C@H]2C1 [Example 32, (8R,9aS)-8-[(5-cyclopropylpyrazin-2-yl)oxy]-2-[3-(trifluoromethyl)benzoyl]octahydro-5H-pyrrolo[1,2-a][1,4]diazepin-5-one] | 46 | 1.72
2 | O=C(c1ccc(C(F)(F)F)cc1)N1CCCN2C[C@H](Oc3cnc(C4CC4)cn3)C[C@H]2C1 [Example 13, [(8R,9aS)-8-[(5-cyclopropylpyrazin-2-yl)oxy]hexahydro-1H-pyrrolo[1,2-a][1,4]diazepin-2(3H)-yl][4-(trifluoromethyl)phenyl]methanone] | 40 | 0.88
3 | O=C1CCN(Cc2cccc(C(F)(F)F)c2)C[C@@H]2C[C@@H](Oc3cnc(C4CC4)cn3)CN12 [Example 42, (8R,9aS)-8-[(5-cyclopropylpyrazin-2-yl)oxy]-2-[3-(trifluoromethyl)benzyl]octahydro-5H-pyrrolo[1,2-a][1,4]diazepin-5-one] | 27 | 0.92
4 | O=C1CCN(c2ccc(C(F)(F)F)cn2)C[C@@H]2C[C@@H](Oc3cnc(C4CC4)cn3)CN12 [Example 47, (8R,9aS)-8-[(5-cyclopropylpyrazin-2-yl)oxy]-2-[5-(trifluoromethyl)pyridin-2-yl]octahydro-5H-pyrrolo[1,2-a][1,4]diazepin-5-one] | 73 | 2.52
5 | FC(F)(F)c1ccc(N2CCCN3C[C@H](Oc4cnc(C5CC5)cn4)C[C@H]3C2)nc1 [Example 19, (8R,9aS)-8-[(5-cyclopropylpyrazin-2-yl)oxy]-2-[5-(trifluoromethyl)pyridin-2-yl]octahydro-1H-pyrrolo[1,2-a][1,4]diazepane] | 36 | 1.21
6 | O=C(c1cccc(C(F)(F)F)c1)N1CCCN2C[C@H](Oc3cnc(C4CC4)cn3)C[C@H]2C1 [Example 7, [(8R,9aS)-8-[(5-cyclopropylpyrazin-2-yl)oxy]hexahydro-1H-pyrrolo[1,2-a][1,4]diazepin-2(3H)-yl][3-(trifluoromethyl)phenyl]methanone] | 44 | 1.66
7 | O=C1CCN(Cc2ccc(OC(F)(F)F)cc2)C[C@@H]2C[C@@H](Oc3cnc(C4CC4)cn3)CN12 [Example 44, (8R,9aS)-8-[(5-cyclopropylpyrazin-2-yl)oxy]-2-[4-(trifluoromethoxy)benzyl]octahydro-5H-pyrrolo[1,2-a][1,4]diazepin-5-one] | 48 | 1.65

Source: patent US9382258B2, “Agents for treating pain and uses thereof” (AbbVie Inc., priority 2012, dated 2016)
